Results on 20 compounds are retold here after US20160368898A1, “2-PYRIDYLOXY-4-METHYL OREXIN RECEPTOR ANTAGONISTS” (MERCK SHARP & DOHME CORP., priority 2013, published 2016).

Assay [1] deals with T1, human orexin-2 receptor (hOX2R) (Homo sapiens, UniProt O43614).
T1 construct: expressed in transfected cells; host or cells: CHO cells (grown under G418)
T1 sequence (O43614 1-444): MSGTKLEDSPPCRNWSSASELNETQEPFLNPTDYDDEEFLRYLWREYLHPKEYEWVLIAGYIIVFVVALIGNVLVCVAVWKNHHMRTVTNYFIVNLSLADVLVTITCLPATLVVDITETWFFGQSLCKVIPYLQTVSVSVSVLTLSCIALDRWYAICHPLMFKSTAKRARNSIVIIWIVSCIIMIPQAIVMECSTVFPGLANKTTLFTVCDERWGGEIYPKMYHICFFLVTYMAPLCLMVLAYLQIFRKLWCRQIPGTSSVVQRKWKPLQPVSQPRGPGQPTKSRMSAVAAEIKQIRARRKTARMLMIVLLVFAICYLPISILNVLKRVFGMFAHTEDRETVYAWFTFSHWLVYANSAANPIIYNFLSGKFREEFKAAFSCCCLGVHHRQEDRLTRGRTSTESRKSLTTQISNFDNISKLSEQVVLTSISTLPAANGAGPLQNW
Briefly: FLIPR Ca2+ Flux Assay, CHO cells expressing the human orexin-2 receptor. The note with it: agonist 70 pM Ala-6,12 human orexin-A. In kind it is cell-based. How it is done: The utility of the compounds in accordance with the present invention as orexin receptor OX1R and/or OX2R antagonists may be readily determined without undue experimentation by methodology well known in the art, including the “FLIPR Ca^2+ Flux Assay” (Okumura et al., Biochem. Biophys. Res. Comm. 280:976-981, 2001). In a typical experiment the OX1 and OX2 receptor antagonistic activity of the compounds of the present invention was determined in accordance with the following experimental method. For intracellular calcium measurements, Chinese hamster ovary (CHO) cells expressing the rat orexin-1 receptor or the human orexin-2 receptor, are grown in Iscove's modified DMEM containing 2 mM L-glutamine, […], 1% hypoxanthine-thymidine supplement, 100 U/ml penicillin, 100 μg/ml streptomycin and 10% heat-inactivated fetal calf serum (FCS). The cells are seeded at 20,000 cells/well into Becton-Dickinson black 384-well clear bottom sterile plates coated with poly-D-lysine. All reagents were from GIBCO-Invitrogen Corp. The seeded plates are incubated overnight at 37° C. and 5% CO2. Ala-6,12 human orexin-A as the agonist is prepared as a 1 mM stock solution in 1% bovine serum albumin (BSA) and diluted in assay buffer (HBSS containing 20 mM HEPES, 0.1% BSA and 2.5 mM probenecid, pH7.4) for use in the assay at a final concentration of 70 pM. Test compounds are prepared as 10 mM stock solution in DMSO, then diluted in 384-well plates, first in DMSO, then assay buffer. On the day of the assay, cells are washed 3 times with 100 μl assay buffer and then incubated for 60 min (37° C., 5% CO2) in 60 μl assay buffer containing 1 μM Fluo-4AM ester, 0.02% pluronic acid, and 1% BSA. The dye loading solution is then aspirated and cells are washed 3 times with 100 μl assay buffer. 30 μl of that same buffer is left in each well. Within the Fluorescent Imaging Plate Reader (FLIPR, Molecular Devices), test compounds are added to the plate in a volume of 25 μl, incubated for 5 min and finally 25 μl of agonist is added. Fluorescence is measured for each well at 1 second intervals for 5 minutes and the height of each fluorescence peak is compared to the height of the fluorescence peak induced by 70 pM Ala-6,12 orexin-A with buffer in place of antagonist. For each antagonist, IC50 value (the concentration of compound needed to inhibit 50% of the agonist response) is determined. Alternatively, compound potency can be assessed by a radioligand binding assay (described in Bergman et. al. Bioorg. Med. Chem. Lett. 2008, 18, 1425-1430) in which the inhibition constant (Ki) is determined in membranes prepared from CHO cells expressing either the OX1 or OX2 receptor. The intrinsic orexin receptor antagonist activity of a compound which may be used in the present invention may be determined by these assays.
(In general: A change in cytosolic calcium serves as a functional read-out for many receptors and channels.)

The target in assay [2] is T2, hOX1R (Homo sapiens, UniProt O43613).
T2 construct: expressed in transfected cells; host or cells: CHO cells (grown under G418)
T2 sequence (O43613 1-425): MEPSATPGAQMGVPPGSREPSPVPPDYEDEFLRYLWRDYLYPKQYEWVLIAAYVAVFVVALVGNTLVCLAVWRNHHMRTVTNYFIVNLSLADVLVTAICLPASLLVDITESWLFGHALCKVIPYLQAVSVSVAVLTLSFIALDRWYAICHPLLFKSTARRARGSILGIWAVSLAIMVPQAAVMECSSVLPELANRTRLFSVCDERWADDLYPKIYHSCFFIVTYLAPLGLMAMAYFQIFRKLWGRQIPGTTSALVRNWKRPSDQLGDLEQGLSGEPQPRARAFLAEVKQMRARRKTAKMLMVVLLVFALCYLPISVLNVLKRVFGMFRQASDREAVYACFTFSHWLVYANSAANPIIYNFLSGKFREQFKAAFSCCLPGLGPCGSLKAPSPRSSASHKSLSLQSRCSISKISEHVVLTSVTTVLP
As to the kind of experiment: FLIPR Ca2+ Flux Assay, CHO cells expressing the orexin-1 receptor. In kind it is cell-based. The following applies: agonist 70 pM Ala-6,12 human orexin-A.

Turning to `Cc1ccnc(O[C@@H]2CC[C@@H](C)N(C(=O)c3ccsc3-n3nccn3)C2)c1` [Example 3, 4-methyl-2-{[(3R,6R)-6-methyl-1-{[2-(2H-1,2,3-triazol-2-yl)thiophen-3-yl]carbonyl}piperidin-3-yl]oxy}pyridine], the concentration for half-maximal inhibition (IC50) (in general, the concentration needed to halve the response being measured) in assay [1] came out at 0.044 µM; in assay [2], 1.67 µM.

On to `COc1ccc(C(=O)N2C[C@H](Oc3cc(C)ccn3)CC[C@H]2C)c(-n2nccn2)n1` [Example 8, 6-methoxy-3-({(2R,5R)-2-methyl-5-[(4-methylpyridin-2-yl)oxy]piperidin-1-yl}carbonyl)-2-(2H-1,2,3-triazol-2-yl)pyridine], for which the IC50 is 0.117 µM in assay [1] and greater than 10 µM in assay [2].

In the case of `Cc1ccnc(O[C@@H]2CC[C@@H](C)N(C(=O)c3nccnc3-c3ccccn3)C2)c1` [Example 16, 2-({(2R,5R)-2-methyl-5-[(4-methylpyridin-2-yl)oxy]piperidin-1-yl}carbonyl)-3-pyridin-2-ylpyrazine], the values for the IC50 in assay [1] and in assay [2] were 0.04 µM and 3.1 µM, respectively.

`Cc1ccnc(O[C@@H]2CC[C@@H](C)N(C(=O)c3ccc(F)cc3-c3ncccn3)C2)c1` [Example 20, 2-[5-fluoro-2-({(2R,5R)-2-methyl-5-[(4-methylpyridin-2-yl)oxy]piperidin-1-yl}carbonyl)phenyl]pyrimidine]: the figures for the IC50 in assay [1] and in assay [2] were 0.042 µM and 1.58 µM, respectively.

`Cc1ccnc(O[C@@H]2CC[C@@H](C)N(C(=O)c3ccc(F)cc3-c3nc(C)no3)C2)c1` [Example 12, 2-{[(3R,6R)-1-{[4-fluoro-2-(3-methyl-1,2,4-oxadiazol-5-yl)phenyl]carbonyl}-6-methylpiperidin-3-yl]oxy}-4-methylpyridine]: the figures for the IC50 in assay [1] and in assay [2] were 0.299 µM and 9.51 µM, respectively.

Regarding `Cc1ccnc(O[C@@H]2CC[C@@H](C)N(C(=O)c3ccc(Cl)cc3-n3nccn3)C2)c1` [Example 5, 2-{[(3R,6R)-1-{[4-chloro-2-(2H-1,2,3-triazol-2-yl)phenyl]carbonyl}-6-methylpiperidin-3-yl]oxy}-4-methylpyridine], the IC50 is 0.029 µM in assay [1] and 1.62 µM in assay [2].

On to `Cc1ccnc(O[C@@H]2CC[C@@H](C)N(C(=O)c3ncccc3-n3nccn3)C2)c1` [Example 9, 2-({(2R,5R)-2-methyl-5-[(4-methylpyridin-2-yl)oxy]piperidin-1-yl}carbonyl)-3-(2H-1,2,3-triazol-2-yl)pyridine], for which the figures for the half-inhibitory concentration (IC50) in assay [1] and in assay [2] were 0.045 µM and 1.77 µM, respectively.

Take `Cc1ccnc(O[C@@H]2CC[C@@H](C)N(C(=O)c3ncccc3-c3noc(C)n3)C2)c1` [Example 18, 2-({(2R,5R)-2-methyl-5-[(4-methylpyridin-2-yl)oxy]piperidin-1-yl}carbonyl)-3-(5-methyl-1,2,4-oxadiazol-3-yl)pyridine]: the IC50 in assay [1] stood at 0.106 µM; in assay [2], 7.03 µM.

Take `Cc1ccnc(O[C@@H]2CC[C@@H](C)N(C(=O)c3ccc(C)cc3-n3nccn3)C2)c1` [Example 7, 4-methyl-2-{[(3R,6R)-6-methyl-1-{[4-methyl-2-(2H-1,2,3-triazol-2-yl)phenyl]carbonyl}piperidin-3-yl]oxy}pyridine]: the figures for the IC50 in assay [1] and in assay [2] were 0.059 µM and 2.34 µM, respectively.

Take `Cc1ccnc(O[C@@H]2CC[C@@H](C)N(C(=O)c3ccccc3CS(C)(=O)=O)C2)c1` [Example 14, 4-methyl-2-{[(3R,6R)-6-methyl-1-({2-[(methylsulfonyl)methyl]phenyl}carbonyl)piperidin-3-yl]oxy}pyridine]: the IC50 is 0.073 µM in assay [1] and greater than 10 µM in assay [2].

`Cc1ccnc(O[C@@H]2CC[C@@H](C)N(C(=O)c3cc(F)ccc3-n3nccn3)C2)c1` [Example 11, 2-{[(3R,6R)-1-{[5-fluoro-2-(2H-1,2,3-triazol-2-yl)phenyl]carbonyl}-6-methylpiperidin-3-yl]oxy}-4-methylpyridine]: the IC50 in assay [1] turned out to be 0.032 µM; in assay [2], 1.05 µM.

With `Cc1ccnc(O[C@@H]2CC[C@@H](C)N(C(=O)c3sccc3-c3ncccn3)C2)c1` [Example 22, 2-[2-({(2R,5R)-2-methyl-5-[(4-methylpyridin-2-yl)oxy]piperidin-1-yl}carbonyl)thiophen-3-yl]pyrimidine], the IC50 is 0.017 µM in assay [1] and 0.791 µM in assay [2].

In the case of `Cc1ccnc(O[C@@H]2CC[C@@H](C)N(C(=O)c3ccccc3-c3ncccn3)C2)c1` [Example 19, ((2R,5R)-2-methyl-5-((4-methylpyridin-2-yl)oxy)piperidin-1-yl)(2-(pyrimidin-2-yl)phenyl)methanone], the IC50 in assay [1] is 0.027 µM; in assay [2] it was 0.98 µM.

In the case of `Cc1ccnc(O[C@@H]2CC[C@@H](C)N(C(=O)c3cccnc3-n3cc(C)cn3)C2)c1` [Example 17, 3-({(2R,5R)-2-methyl-5-[(4-methylpyridin-2-yl)oxy]piperidin-1-yl}carbonyl)-2-(4-methyl-1H-pyrazol-1-yl)pyridine], the IC50 came to 0.033 µM in assay [1] and 1.75 µM in assay [2].

Turning to `Cc1ccnc(O[C@@H]2CC[C@@H](C)N(C(=O)c3ccccc3-n3nccn3)C2)c1` [Example 1, 4-Methyl-2-{[(3R,6R)-6-methyl-1-{[2-(2H-1,2,3-triazol-2-yl)phenyl]carbonyl}piperidin-3-yl]oxy}pyridine], the IC50 in assay [1] stood at 0.016 µM. This counts as double-digit nanomolar.

In the case of `COCc1ccccc1C(=O)N1C[C@H](Oc2cc(C)ccn2)CC[C@H]1C` [Example 15, 2-{[(3R,6R)-1-{[2-(methoxymethyl)phenyl]carbonyl}-6-methylpiperidin-3-yl]oxy}-4-methylpyridine], the IC50 is 0.226 µM in assay [1] and greater than 10 µM in assay [2].

Regarding `Cc1ccnc(O[C@@H]2CC[C@@H](C)N(C(=O)c3c(F)cccc3-n3nccn3)C2)c1` [Example 4, 2-{[(3R,6R)-1-{[2-fluoro-6-(2H-1,2,3-triazol-2-yl)phenyl]carbonyl}-6-methylpiperidin-3-yl]oxy}-4-methylpyridine], the values for the IC50 in assay [1] and in assay [2] were 0.028 µM and 0.875 µM, respectively.

As for `Cc1ccnc(O[C@@H]2CC[C@@H](C)N(C(=O)c3ccccc3-n3ncnn3)C2)c1` [Example 2, (2-(2H-Tetrazol-2-yl)phenyl)((2R,5R)-2-methyl-5-((4-methylpyridin-2-yl)oxy)piperidin-1-y1)methanone], the IC50 in assay [1] is 0.017 µM; in assay [2] it was 1.48 µM.

Take `Cc1ccnc(O[C@@H]2CC[C@@H](C)N(C(=O)c3ccccc3C3(C#N)CC3)C2)c1` [Example 10, 1-[2-({(2R,5R)-2-methyl-5-[(4-methylpyridin-2-yl)oxy]piperidin-1-yl}carbonyl)phenyl]cyclopropanecarbonitrile]: the figures for the IC50 in assay [1] and in assay [2] were 0.028 µM and 1.21 µM, respectively.

As for `Cc1ccnc(O[C@@H]2CC[C@@H](C)N(C(=O)c3ccc(F)cc3-n3nccn3)C2)c1` [Example 6, 2-{[(3R,6R)-1-{[4-fluoro-2-(2H-1,2,3-triazol-2-yl)phenyl]carbonyl}-6-methylpiperidin-3-yl]oxy}-4-methylpyridine], the 50% inhibitory concentration (IC50) in assay [1] is 0.035 µM; in assay [2], 2.29 µM.
